According to patent US20240091218A1, “METHODS OF TREATING PROSTATE CANCER USING EXICORILANT AND ENZALUTAMIDE” (Corcept Therapeutics Incorporated, priority 2022, published 2024):
Several values for one entry are separate records, joined by “and”; a condition that tells them apart may be missing. Equal values may be shown once. Entries after “also recorded” stand apart in the source; their conditions may differ. Read-outs that look alike come from different tables or passages of the source.

What was measured:
[1] = male, human, in vivo
[2] = system: GR target genes (CDKN1C); assay: GR target gene expression in blood (NanoString)
[3] = biological target: T1, human GR (Homo sapiens, UniProt P04150); assay: human GR binding
T1 sequence (P04150 1-777): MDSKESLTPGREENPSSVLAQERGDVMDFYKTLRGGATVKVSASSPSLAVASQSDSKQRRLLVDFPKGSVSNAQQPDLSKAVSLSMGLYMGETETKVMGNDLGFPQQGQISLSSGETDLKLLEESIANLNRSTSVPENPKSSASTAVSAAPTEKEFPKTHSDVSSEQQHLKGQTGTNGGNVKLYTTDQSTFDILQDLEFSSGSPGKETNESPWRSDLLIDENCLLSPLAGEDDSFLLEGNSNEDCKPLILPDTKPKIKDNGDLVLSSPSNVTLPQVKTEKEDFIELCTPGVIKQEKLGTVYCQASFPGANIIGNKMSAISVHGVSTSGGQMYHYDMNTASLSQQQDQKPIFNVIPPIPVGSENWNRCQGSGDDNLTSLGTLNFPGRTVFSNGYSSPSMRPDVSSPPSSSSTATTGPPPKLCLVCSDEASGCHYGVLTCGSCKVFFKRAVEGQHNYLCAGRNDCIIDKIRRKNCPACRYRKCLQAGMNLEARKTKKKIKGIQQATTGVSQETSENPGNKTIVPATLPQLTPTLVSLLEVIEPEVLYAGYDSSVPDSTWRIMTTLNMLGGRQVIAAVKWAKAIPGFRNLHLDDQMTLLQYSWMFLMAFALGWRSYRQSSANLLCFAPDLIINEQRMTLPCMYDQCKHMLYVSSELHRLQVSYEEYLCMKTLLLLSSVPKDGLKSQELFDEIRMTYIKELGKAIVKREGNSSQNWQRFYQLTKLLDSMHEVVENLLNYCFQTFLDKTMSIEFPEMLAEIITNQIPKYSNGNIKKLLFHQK

[4] = biological target: T1, human GR; assay: human GR functional assays; format: cell-based
[5] = system: ER and AR; assay: selectivity for GR relative to ER and AR
[6] = system: 22Rv1 prostate cancer xenografts; assay: mouse 22Rv1 prostate cancer xenografts; format: in vivo; conditions: 21 days
Description: Left: N=10 mice/group. Castration performed 5 days after inoculation with 22Rv1 tumor cells; exicorilant treatment initiated on day 6 for 21 days. Right: N=10 mice/group. Castration performed 3 days before implantation of 22Rv1 tumor cells; exicorilant treatment initiated on day 7 for 21 days.

[7] = Description: The present study was an investigation of the safety and efficacy of exicorilant when administered in combination with enzalutamide in the treatment of patients suffering from metastatic castration-resistant prostate cancer (mCRPC). […] Patients with histologically confirmed prostate cancer, who had received at least two prior regimens of cytotoxic chemotherapy, were eligible for this study.
Patients in Segment 1 of the study received exicorilant twice daily under fasted conditions. This segment of the study was performed with a standard ‘3+3’ design, including one cohort with an enzalutamide alone lead-in. Enzalutamide was administered once daily.
Patients in Segment 2 of the study received exicorilant once daily under fed conditions. This segment of the study was a double-blind study, in which patients were randomized 3:1 to exicorilant titration (starting at 240 mg, titrated to 280 mg followed by 320 mg every 2 weeks as tolerated starting Cycle 1 Day 16) or to stay on exicorilant 240 mg+placebo. Enzalutamide was administered once daily.
Treatment emergent adverse events (TEAEs) and dose-limiting toxicity events (DLTs) were evaluated for the patients in Segment 2.
Dose-limiting toxicities (DLTs) were recorded from first dose of exicorilant through Cycle 3 and were defined as considered possibly or probably related to study drug by the investigator.

[8] = exicorilant pharmacokinetics in Segment 2 patients; format: in vivo, human; conditions: for AUC(0-t) / Cmax: male, human, in vivo, oral, once daily with food; for AUC(0-t): read-out: AUC0-24, geometric mean; for Cmax: read-out: Cmax, geometric mean
Description: Exicorilant pharmacokinetics observed in the patients in Segment 2 are illustrated in FIG. 4A (data are shown as geometric mean plus geometric standard deviation), and tabulated in TABLE 6.

[9] = system: cortisol, ACTH; assay: serum cortisol, ACTH and 24-h urinary free cortisol in patients; format: in vivo, human; conditions: for serum cortisol and ACTH levels: patients receiving exicorilant and enzalutamide
Protocol: Data from Segment 2 subjects whose exicorilant doses were escalated to the doses indicated on the horizontal axis. The 24-h UFC reference range was 10-100 μg/day. The 24-h UFC value for C1D1 (cycle 1, day 1) indicates the initial 24-h UFC levels.
Consistent with prior studies of exicorilant and other SGRMs, morning serum cortisol and ACTH levels were not affected in the safety population or patients who escalated to 320 mg exicorilant. […] The grey band indicates the baseline mean±SD. End of treatment: n=9; cycle 9 day 1: n=3; cycle 6 day 1: n=8; cycle 3 day 1: n=14; cycle 2 day 1: n=13; baseline: n=20.

[10] = system: metastatic castration-resistant prostate cancer (mCRPC)
Protocol: Patients received either exicorilant 180 mg twice daily (BID)+enzalutamide 160 mg once daily (QD), or exicorilant 140 mg BID+enzalutamide 160 mg QD with a 28-day enzalutamide lead-in, or exicorilant 140 mg BID+enzalutamide 160 mg QD without an enzalutamide lead-in. Segment 2 enrolled patients who were on a stable dose of enzalutamide with rising PSA (25% increase over nadir and an absolute value >1 ng/mL) and evaluated QD dosing of exicorilant in a double-blind design. All segment 2 patients received exicorilant 240 mg QD+enzalutamide and were randomized 3:1 to titrate to exicorilant 280 mg or 320 mg or to receive placebo.
Segment 2 of the study was a double-blind, placebo-controlled study of patients with rising PSA; exicorilant was administered once-daily, at a dose that was phased-in (titrated in these patients from 240 mg/day, to 280 mg/ day, to 320 mg/day). […] Twenty five patients were enrolled and randomized in a ratio of 3:1 to arm A or to arm B. Exicorilant was administered to the patients once per day, with food; enzalutamide was administered at the dose that was currently tolerated and stable for each patient. Pharmacokinetic assessments of both exicorilant and enzalutamide were made on cycle 1, day 15 (C1D15), and two weeks after each dose escalation; pharmacokinetic assessments of exicorilant were made after each dose reduction (if any). Pharmacodynamic (PD) assessments were made on cycle 1, day 1 (C1D1), cycle 1, day 15 (C1D15), and two weeks after each dose escalation every three cycles from cycle 3, and upon exicorilant discontinuation or disease progression.
PSADT was calculated prior to the first dose of exicorilant (patients on enzalutamide alone), and after C1D1, C2D1, and C3D1 (where “C1D1” stands for cycle 1, day 1 of the combined treatment; “C2D1” stands for cycle 2, day 1 of the combined treatment; and “C3D1” stands for cycle 3, day 1 of the combined treatment).
The median duration of exposure to exicorilant was 9.7 weeks (range: 2-61). In the results shown in FIG. 8A, tumor response was assessed by Prostate Cancer Clinical Trials Working Group 3 (PCWG3) criteria, incorporating modified “Response Evaluation Criteria in Solid Tumors v1.1” (mRECIST v1.1) criteria. Imaging-based PFS was assessed by mRECIST v1.1, progression on bone lesions per PCWG3, or death.

[11] = Arm A, EXI 240 mg + ENZA 160 mg (15 PK observations)
[12] = Arm A, EXI 280 mg + ENZA 160 mg (8 PK observations)
[13] = Arm A, EXI 320 mg + ENZA 160 mg (8 PK observations)
[14] = Arm B, EXI 240 mg + ENZA 160 mg (14 PK observations, combined)
[15] = Segment 2 (n = 25), PCWG3 criteria

CNC(=O)c1ccc(N2C(=S)N(c3ccc(C#N)c(C(F)(F)F)c3)C(=O)C2(C)C)cc1F [enzalutamide]
enzalutamide exposures in combination with exicorilant [1]: consistent with historical data for enzalutamide 160 mg alone | CDKN1C expression ([2]; enzalutamide alone, Segment 1 lead-in): not affected

Cn1ncc(S(=O)(=O)N2CC[C@H]3Cc4c(cnn4-c4ccc(F)cc4)C[C@]3(C(=O)c3cc(C(F)(F)F)ccn3)C2)n1 [exicorilant, ((4aR,8aS)-1-(4-fluorophenyl)-6-((2-methyl-2H-1,2,3-triazol-4-yl)sulfonyl)-4,4a,5,6,7,8,8a,9-octahydro-1H-pyrazolo[3,4-g]isoquinolin-4a-yl)(4-(trifluoromethyl)pyridin-2-yl)methanone]
Ki [3]: < 1 nM | Ki [4]: < 15 nM | mode of action at GR [4]: competitive, reversible, full antagonist of GR | selectivity for GR [5]: selectivity for GR relative to ER and AR | tumor growth ([6]; exicorilant with castration vs castration alone, N=10 mice/group): significantly reduced tumor growth | most frequently reported TEAE assessed as related to exicorilant ([7]; human, in vivo): fatigue | Exicorilant-related TEAE ALP increased, % of patients ([7]; male, human, in vivo): (12.0%) | Exicorilant-related TEAE ALP increased, number of patients ([7]; male, human, in vivo): 3 | Exicorilant-related TEAE Anemia, % of patients ([7]; male, human, in vivo): (16.0%) | Exicorilant-related TEAE Anemia, number of patients ([7]; male, human, in vivo): 4 | Exicorilant-related TEAE Constipation, % of patients ([7]; male, human, in vivo): (28.0%) | Exicorilant-related TEAE Constipation, number of patients ([7]; male, human, in vivo): 7 | Exicorilant-related TEAE Decreased appetite, % of patients ([7]; male, human, in vivo): (24.0%) | Exicorilant-related TEAE Decreased appetite, number of patients ([7]; male, human, in vivo): 6 | Exicorilant-related TEAE Lymphocyte count decreased, % of patients ([7]; male, human, in vivo): (12.0%) | Exicorilant-related TEAE Lymphocyte count decreased, number of patients ([7]; male, human, in vivo): 3 | Exicorilant-related TEAE Nausea, % of patients ([7]; male, human, in vivo): (20.0%) | Exicorilant-related TEAE Nausea, number of patients ([7]; male, human, in vivo): 5 | Exicorilant-related TEAE Pain in extremity, % of patients ([7]; male, human, in vivo): (20.0%) | Exicorilant-related TEAE Pain in extremity, number of patients ([7]; male, human, in vivo): 5 | Patients with any TEAE related to exicorilant, % ([7]; male, human, in vivo): (92.0%) | Patients with any TEAE related to exicorilant, number ([7]; male, human, in vivo): 23 | SAEs assessed as being related to exicorilant, number ([7]; male, human, in vivo): 1 | exicorilant-related AE back pain, % of patients ([7]; male, human, in vivo): 35% | exicorilant-related AE decreased appetite, % of patients ([7]; male, human, in vivo): 27% | exicorilant-related AE fatigue, % of patients ([7]; male, human, in vivo): 57% | exicorilant-related AE pain in extremity, % of patients ([7]; male, human, in vivo): 22% | exicorilant exposures across arms and dose levels ([8]; Segment 2, 240-320 mg): largely overlapping across arms and dose levels | AUC(0-t) [8, 11]: 366 µg·h/mL | Cmax [8, 11]: 17700 ng/mL | AUC(0-t) [8, 12]: 401 µg·h/mL | Cmax [8, 12]: 19600 ng/mL | AUC(0-t) [8, 13]: 428 µg·h/mL | Cmax [8, 13]: 19600 ng/mL | AUC(0-t) [8, 14]: 375 µg·h/mL | Cmax [8, 14]: 17200 ng/mL | 24-h urinary free cortisol (UFC) levels ([9]; Segment 2 subjects with escalated exicorilant doses): did not increase UFC levels | serum cortisol and ACTH levels [9]: did not affect cortisol or ACTH levels; also recorded: not significantly altered; also recorded: no significant alterations | pharmacodynamic effects (gene expression), with food vs fasting ([2]; 240-320 mg QD with food vs BID fasting (Segment 1)): larger when exicorilant was administered with food; also recorded: greater than those observed in fasted patients | modulation of GR target genes ([2]; patients receiving exicorilant): confirmed modulation of GR target genes; also recorded: Modulation of GR target genes was observed

CNC(=O)c1ccc(N2C(=S)N(c3ccc(C#N)c(C(F)(F)F)c3)C(=O)C2(C)C)cc1F.Cn1ncc(S(=O)(=O)N2CC[C@H]3Cc4c(cnn4-c4ccc(F)cc4)C[C@]3(C(=O)c3cc(C(F)(F)F)ccn3)C2)n1 [exicorilant+enzalutamide]
tumor growth ([6]; exicorilant with enzalutamide vs enzalutamide alone, castrated mice, N=10/group): significantly reduced tumor growth | SAEs with a fatal outcome ([7]; Segment 2): No SAEs with a fatal outcome | grade 5 TEAEs ([7]; all patients): no grade 5 adverse events; also recorded: no grade 5 TEAEs | grade 4 TEAEs, number ([7]; human, in vivo): one | tolerated phase 2 regimen, exicorilant dose ([7]; once-daily, combined with 160 mg enzalutamide once daily, based on DLTs): 240 mg | dose-limiting events ([7]; segment 1, exicorilant BID fasted): Dose-limiting fatigue, musculoskeletal pain, and pancreatitis | serum cortisol and ACTH levels [9]: neither ACTH nor cortisol levels are significantly elevated | PSA reductions at any time during treatment, % of patients ([10]; Segment 2): 56% | PSA reductions at any time during treatment, number of patients ([10]; Segment 2): 14 | patients with greater than 25% increase in PSADT ([10]; Segment 2): Two | PSA response (≥50% PSA reduction from baseline), number of patients ([10]; Segment 2 (n = 25)): 1 | reductions in PSA as compared to baseline, % of patients ([10]; Segment 2 (n = 25)): 15% and 16% | reductions in PSA as compared to baseline, number of patients ([10]; Segment 2 (n = 25)): 4 | radiographic / imaging-based tumor responses ([10]; Segment 2 (n = 25), PCWG3/mRECIST v1.1): no radiographic responses; also recorded: no imaging-based tumor responses | best overall response of stable disease, % of patients [10, 15]: 72% | best overall response of stable disease, number of patients [10, 15]: 18 | PSADT increased, % of patients ([10]; Segment 2, After C1D1 (n = 25)): 52% | PSADT increased, number of patients ([10]; Segment 2, After C1D1 (n = 25)): 13 | PSADT increased, % of patients ([10]; Segment 2, After C2D1 (n = 23)): 69.6% | PSADT increased, number of patients ([10]; Segment 2, After C2D1 (n = 23)): 16 | PSADT increased, % of patients ([10]; Segment 2, After C3D1 (n = 13)): 61.4% | PSADT increased, number of patients ([10]; Segment 2, After C3D1 (n = 13)): 8 | PSADT increase, % of patients ([10]; Segment 2 patients who received more than two cycles of the combined treatment): 61.5% | PSA declines by the second on-treatment PSA assessment, number of patients ([10]; of 14 patients with PSA reductions): 11 | PSA reduction from baseline in one patient ([10]; patient who received 320 mg exicorilant with 160 mg enzalutamide): 71.1% | PSA reduction from baseline in one patient ([10]; patient with 240 mg exicorilant + 160 mg enzalutamide): 36.7% | increases in PSA doubling time, % of patients ([10]; patients dosed daily under fed conditions): more than 50%
